According to PubChem BioAssay AID624361 (Broad Institute, 2012):
Inconclusive results are not listed. Activity calls are given as the source filed them. How the calls were made is not given here.

system: LMP1-induced NF-kappaB luciferase reporter cells, luminescence; assay: LMP1-induced NF-kB luciferase signal inhibition – cell-based, EBV LMP1, dry powder, set 2, dose response (AID 624361); conditions: not given

SMILES	AC35 [µM]
N#C[C@H]1[C@H](c2ccc(C#Cc3ccccc3F)cc2)[C@@H](CO)N1C(=O)c1cccnc1	22.8
Cc1noc(C)c1S(=O)(=O)Nc1ccc2c(c1)C(=O)N([C@@H](C)CO)C[C@@H](C)[C@H](CN(C)Cc1ccc(C(F)(F)F)cc1)OCCCC[C@H](C)O2	25.6
O=C(Nc1ccc(C(F)(F)F)cc1)Nc1ccc2c(c1)[C@@H]1C[C@H](CC(=O)N3CCc4ccccc4C3)O[C@@H](CO)[C@@H]1O2	9.85
C[C@@H]1CN([C@H](C)CO)C(=O)Cc2cc(NC(=O)Cc3ccccc3)ccc2O[C@@H]1CN(C)Cc1ccc(C(F)(F)F)cc1	31.5
C[C@H]1CN([C@@H](C)CO)C(=O)c2cc(C#Cc3ccccc3F)cnc2O[C@@H]1CN(C)C(=O)C1CCCCC1	24.6
O=C(C[C@@H]1CC[C@@H]2[C@H](COC[C@@H](O)CN2Cc2ccc(Oc3ccccc3)cc2)O1)N1CCc2ccccc2C1	17.8

system: not listed separately; assay: as above; conditions: LMP1-induced NF-kappaB luciferase reporter cells, luminescence; at 30 µM (top of the series)

SMILES	activity change, negative = inhibition
C[C@H](NC(=O)C[C@@H]1C=C[C@H](NC(=O)Cc2ccccn2)[C@H](CO)O1)c1ccccc1	-0.706% (inactive)

same assay, conditions: LMP1-induced NF-kappaB luciferase reporter cells, luminescence; at 35 µM (top of the series)

SMILES	activity change, negative = inhibition
C[C@H](NC(=O)C[C@H]1C=C[C@@H](NC(=O)Cc2ccccn2)[C@@H](CO)O1)c1ccccc1	11% (inactive)
COc1ccccc1C(=O)Nc1ccc2c(c1)C(=O)N(C)[C@@H]1CC[C@H](CC(=O)NCCc3ccncc3)O[C@H]1CO2	-6.13% (inactive)
C/C=C/c1cccc(-c2nc(C(=O)Nc3nccs3)cc3c2[C@@H](CCO)N(C(=O)NC(C)C)C3)c1	-17% (inactive)
C[C@H](NC(=O)C[C@H]1C[C@@H]2c3cc(NC(=O)c4cccnc4)ccc3O[C@@H]2[C@@H](CO)O1)c1ccccc1	0.067% (inactive)
O=C(Cc1ccccn1)NCC[C@H]1CC[C@@H](NC(=O)Nc2ccc(Cl)cc2)[C@@H](CO)O1	-0.381% (inactive)
COC(=O)C[C@@H]1C[C@@H]2c3cc(NC(=O)CN(C)C)ccc3O[C@@H]2[C@@H](CO)O1	-0.64% (inactive)
C[C@@H](NC(=O)C[C@H]1C=C[C@H](NC(=O)Cc2ccccn2)[C@H](CO)O1)c1ccccc1	9.56% (inactive)
O=C(Cc1ccccn1)NCC[C@@H]1CC[C@@H](NC(=O)Nc2ccc(Cl)cc2)[C@@H](CO)O1	1.94% (inactive)
C[C@@H]1CN([C@H](C)CO)C(=O)c2c(c3ccccc3n2C)-c2ccccc2CO[C@@H]1CN(C)C(=O)Nc1ccc(F)cc1	-8.91% (inactive)
C[C@H](NC(=O)C[C@H]1C=C[C@H](NC(=O)Cc2ccccn2)[C@H](CO)O1)c1ccccc1	5.47% (inactive)
O=C(Cc1ccccn1)NCC[C@@H]1CC[C@@H](NC(=O)Nc2ccc(Cl)cc2)[C@H](CO)O1	10.1% (inactive)
Cc1noc(C)c1S(=O)(=O)Nc1ccc2c(c1)C(=O)N([C@H](C)CO)C[C@H](C)[C@@H](CN(C)Cc1ccc(C(F)(F)F)cc1)OCCCC[C@@H](C)O2	-11.1% (inactive)
C[C@@H](NC(=O)C[C@H]1C=C[C@@H](NC(=O)Cc2ccccn2)[C@H](CO)O1)c1ccccc1	-5.56% (inactive)
O=C(Cc1ccccn1)NCC[C@H]1CC[C@@H](NC(=O)Nc2ccc(Cl)cc2)[C@H](CO)O1	-2.38% (inactive)
C[C@@H]1CN([C@@H](C)CO)C(=O)c2c(c3ccccc3n2C)-c2ccccc2CO[C@@H]1CN(C)C(=O)Nc1ccc(F)cc1	-5.35% (inactive)
COC(=O)C[C@H]1C[C@H]2c3cc(NC(=O)CN(C)C)ccc3O[C@H]2[C@H](CO)O1	-4.37% (inactive)
C[C@@H]1CN([C@H](C)CO)C(=O)Cc2cc(NC(=O)Cc3ccccc3)ccc2O[C@H]1CN(C)Cc1ccc(C(F)(F)F)cc1	-9.16% (inactive)
C[C@H]1CN([C@@H](C)CO)C(=O)Cc2cc(NC(=O)Cc3ccccc3)ccc2O[C@H]1CN(C)Cc1ccc(C(F)(F)F)cc1	11.5% (inactive)
C[C@H](NC(=O)C[C@@H]1C=C[C@@H](NC(=O)Cc2ccccn2)[C@H](CO)O1)c1ccccc1	-0.475% (inactive)
C[C@@H](NC(=O)C[C@@H]1C=C[C@H](NC(=O)Cc2ccccn2)[C@@H](CO)O1)c1ccccc1	8.29% (inactive)
C[C@@H](NC(=O)C[C@@H]1C=C[C@H](NC(=O)Cc2ccccn2)[C@H](CO)O1)c1ccccc1	-1.52% (inactive)
C[C@H]1CN([C@@H](C)CO)C(=O)Cc2cc(NC(=O)Cc3ccccc3)ccc2O[C@@H]1CN(C)Cc1ccc(C(F)(F)F)cc1	-12.8% (inactive)
C[C@@H]1CN([C@H](C)CO)C(=O)c2c(c3ccccc3n2C)-c2ccccc2CO[C@H]1CN(C)C(=O)Nc1ccc(F)cc1	-3.16% (inactive)
CC(C)(C)[S@@](=O)N1Cc2cc(C(=O)NCCc3ccncc3)nc(-c3cccc(-c4cccnc4)c3)c2[C@H]1CCO	-15% (inactive)
C[C@H](CO)N1C[C@H](C)[C@H](CN(C)Cc2ccc(C(F)(F)F)cc2)Oc2ccc(NC(=O)Cc3ccccc3)cc2CC1=O	4.01% (inactive)
O=C(Cc1ccccn1)NCC[C@@H]1CC[C@H](NC(=O)Nc2ccc(Cl)cc2)[C@H](CO)O1	-5.88% (inactive)

SMILES	activity change, negative = inhibition
C[C@H](NC(=O)C[C@H]1C=C[C@H](NC(=O)Cc2ccccn2)[C@@H](CO)O1)c1ccccc1	3.66% (inactive)
C[C@H](NC(=O)C[C@H]1C=C[C@@H](NC(=O)Cc2ccccn2)[C@H](CO)O1)c1ccccc1	-1.8% (inactive)
CO[C@@H]1CN(C)C(=O)c2ccc(NC(C)=O)cc2OC[C@@H](C)N(Cc2ccccc2F)C[C@H]1C	0.476% (inactive)
C[C@@H](NC(=O)C[C@H]1C=C[C@H](NC(=O)Cc2ccccn2)[C@@H](CO)O1)c1ccccc1	9.43% (inactive)
O=C(C[C@@H]1C[C@H]2c3cc(NS(=O)(=O)c4ccc(F)cc4)ccc3O[C@H]2[C@@H](CO)O1)NC1CCCCC1	-2.44% (inactive)
C[C@H](NC(=O)C[C@@H]1C=C[C@H](NC(=O)Cc2ccccn2)[C@@H](CO)O1)c1ccccc1	-0.999% (inactive)
C[C@@H](NC(=O)C[C@H]1C[C@@H]2c3cc(NC(=O)c4cccnc4)ccc3O[C@@H]2[C@@H](CO)O1)c1ccccc1	-0.38% (inactive)
CO[C@H]1CN(C)C(=O)c2ccc(NC(=O)C3CC3)cc2OC[C@H](C)N(C(=O)c2ccccn2)C[C@H]1C	-14% (inactive)
Cc1noc(C)c1S(=O)(=O)Nc1ccc2c(c1)C(=O)N([C@H](C)CO)C[C@@H](C)[C@@H](CN(C)Cc1ccc(C(F)(F)F)cc1)OCCCC[C@@H](C)O2	1.95% (inactive)
O=C(C[C@@H]1C[C@@H]2c3cc(NC(=O)c4cccnc4)ccc3O[C@@H]2[C@H](CO)O1)NCC(F)(F)F	-2.29% (inactive)
C[C@@H]1CN([C@@H](C)CO)C(=O)c2c(c3ccccc3n2C)-c2ccccc2CO[C@H]1CN(C)C(=O)Nc1ccc(F)cc1	-8.29% (inactive)
CS(=O)(=O)Nc1ccc2c(c1)[C@H]1C[C@@H](CC(=O)NCC3CC3)O[C@@H](CO)[C@H]1O2	8.63% (inactive)
O=C(C[C@H]1C[C@@H]2c3cc(NS(=O)(=O)c4ccc(F)cc4)ccc3O[C@@H]2[C@H](CO)O1)NC1CCCCC1	-1.53% (inactive)
CS(=O)(=O)Nc1ccc2c(c1)[C@@H]1C[C@H](CC(=O)NCC3CC3)O[C@H](CO)[C@@H]1O2	-4.41% (inactive)
C[C@@H]1CN([C@@H](C)CO)C(=O)Cc2cc(NC(=O)Cc3ccccc3)ccc2O[C@@H]1CN(C)Cc1ccc(C(F)(F)F)cc1	-12.6% (inactive)
C[C@@H](NC(=O)C[C@@H]1C=C[C@@H](NC(=O)Cc2ccccn2)[C@@H](CO)O1)c1ccccc1	9.33% (inactive)
C[C@@H](NC(=O)C[C@@H]1C=C[C@@H](NC(=O)Cc2ccccn2)[C@H](CO)O1)c1ccccc1	5.05% (inactive)
C[C@H]1CN([C@@H](C)CO)C(=O)c2c(c3ccccc3n2C)-c2ccccc2CO[C@@H]1CN(C)C(=O)Nc1ccc(F)cc1	-12.4% (inactive)
C[C@H](CO)N1C[C@H](C)[C@H](CN(C)Cc2ccc(Oc3ccccc3)cc2)Oc2ccc(NC(=O)CCCN(C)C)cc2C1=O	16.2% (inactive)
C[C@H](CO)N1C[C@H](C)[C@@H](CN(C)Cc2ccc(C(F)(F)F)cc2)Oc2ccc(NC(=O)Cc3ccccc3)cc2CC1=O	-11.3% (inactive)
O=C(Cc1ccccn1)NCC[C@H]1CC[C@H](NC(=O)Nc2ccc(Cl)cc2)[C@H](CO)O1	-1.01% (inactive)
O=C(Cc1ccccn1)NCC[C@@H]1CC[C@H](NC(=O)Nc2ccc(Cl)cc2)[C@@H](CO)O1	-3.42% (inactive)
COc1ccccc1CNC(=O)C[C@H]1C[C@@H]2c3cc(NC(=O)CN(C)C)ccc3O[C@@H]2[C@@H](CO)O1	0.74% (inactive)
C[C@@H](NC(=O)C[C@H]1C=C[C@@H](NC(=O)Cc2ccccn2)[C@@H](CO)O1)c1ccccc1	0.795% (inactive)
CCC(=O)N1Cc2cc(C(=O)Nc3nccs3)nc(-c3cccc(-c4ccccc4OC)c3)c2[C@H]1CCO	-7.28% (inactive)
O=C(Cc1ccccn1)NCC[C@H]1CC[C@H](NC(=O)Nc2ccc(Cl)cc2)[C@@H](CO)O1	-4.61% (inactive)
